In the supplement of paper PMC10307832:

How the values were obtained:
Assay in all cases: relative viability (nuclei count vs DMSO), 5 days (fraction); higher = more cells survive
IU1-47 + Crizotinib = compound: CC1=CC(=C(N1C2=CC=C(C=C2)Cl)C)C(=O)CN3CCCCC3 [IU1-47] + C[C@@H](Oc1cc(-c2cnn(C3CCNCC3)c2)cnc1N)c1c(Cl)ccc(F)c1Cl [Crizotinib] (partner 1 µM)
Summary of the method: (§1)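 Lung cancer cell lines in 1536-well plates were dosed by pin tool the day after seeding, either with one drug alone or with a fixed anchor-drug dose plus five library-drug doses (not always all listed) in √10 steps. After 5 days, cells were fixed and their nuclei stained in one step (final 0.05% Triton X-100, 1% formaldehyde, 1 ug/ml Hoechst), then counted on 4× images. Relative viability is the nuclei count in treated wells divided by that in vehicle wells. Values are medians of duplicate plates.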

FG-4592 + Palbociclib = compound: Cc1nc(C(=O)NCC(=O)O)c(O)c2ccc(Oc3ccccc3)cc12 [FG-4592] + CC(=O)c1c(C)c2cnc(Nc3ccc(N4CCNCC4)cn3)nc2n(C2CCCC2)c1=O [Palbociclib] (partner 0.5 µM)
Summary of the method: as §1

IU1-47 + Linsitinib = compound: CC1=CC(=C(N1C2=CC=C(C=C2)Cl)C)C(=O)CN3CCCCC3 [IU1-47] + C[C@]1(O)C[C@@H](c2nc(-c3ccc4ccc(-c5ccccc5)nc4c3)c3c(N)nccn32)C1 [Linsitinib] (partner 1 µM)
Summary of the method: as §1

FG-4592 + Decitabine = compound: Cc1nc(C(=O)NCC(=O)O)c(O)c2ccc(Oc3ccccc3)cc12 [FG-4592] + Nc1ncn([C@H]2C[C@H](O)[C@@H](CO)O2)c(=O)n1 [Decitabine] (partner 2 µM)
Summary of the method: as §1

Cell Line | relative viability (IU1-47 + Crizotinib; first compound 0.08 µM) | relative viability (IU1-47 + Crizotinib; first compound 0.253 µM) | relative viability (IU1-47 + Crizotinib; first compound 0.8 µM) | relative viability (IU1-47 + Crizotinib; first compound 2.53 µM) | relative viability (IU1-47 + Crizotinib; first compound 8 µM) | relative viability (FG-4592 + Palbociclib; first compound 0.08 µM) | relative viability (FG-4592 + Palbociclib; first compound 0.253 µM) | relative viability (FG-4592 + Palbociclib; first compound 0.8 µM) | relative viability (FG-4592 + Palbociclib; first compound 2.53 µM) | relative viability (FG-4592 + Palbociclib; first compound 8 µM) | relative viability (IU1-47 + Linsitinib; first compound 0.08 µM) | relative viability (IU1-47 + Linsitinib; first compound 0.253 µM) | relative viability (IU1-47 + Linsitinib; first compound 0.8 µM) | relative viability (IU1-47 + Linsitinib; first compound 2.53 µM) | relative viability (IU1-47 + Linsitinib; first compound 8 µM) | relative viability (FG-4592 + Decitabine; first compound 0.08 µM) | relative viability (FG-4592 + Decitabine; first compound 0.253 µM) | relative viability (FG-4592 + Decitabine; first compound 0.8 µM) | relative viability (FG-4592 + Decitabine; first compound 2.53 µM) | relative viability (FG-4592 + Decitabine; first compound 8 µM)
NCI-H1666 | 0.948 | 0.914 | 0.927 | 0.991 | 1.08 | 0.698 | 0.554 | 0.658 | 0.673 | 0.689 | 0.759 | 0.775 | 0.773 | 0.708 | 0.757 | 0.836 | 0.724 | 0.867 | 0.711 | 0.759
NCI-H1734 | 0.658 | 0.688 | 0.646 |  | 0.647 | 0.348 | 0.362 | 0.35 | 0.345 | 0.286 | 0.883 | 0.954 | 0.876 |  | 0.781 | 0.519 | 0.463 | 0.53 | 0.489 | 0.458
NCI-H1755 | 0.883 | 0.927 | 0.899 | 0.895 | 0.756 | 0.476 | 0.446 | 0.409 | 0.471 | 0.463 | 1.03 | 1.03 | 1.06 | 1.05 | 0.962 | 0.697 | 0.773 | 0.736 | 0.679 | 0.689
NCI-H1792 | 0.993 | 1.03 | 1.07 | 1.02 | 0.522 | 0.493 | 0.614 | 0.689 | 0.661 | 0.684 | 0.615 | 0.581 | 0.449 | 0.299 | 0.336 | 0.508 | 0.485 |  | 0.525 | 0.484
NCI-H1915 | 0.973 | 0.892 | 0.915 |  | 0.907 | 0.475 | 0.513 | 0.496 | 0.504 | 0.513 | 1.15 | 1.12 | 1.15 |  | 1.14 | 0.271 | 0.28 | 0.284 | 0.255 | 0.252
NCI-H1944 | 1.15 | 1.21 | 1.08 |  | 1.09 | 0.329 | 0.329 | 0.282 | 0.363 | 0.29 | 1.23 | 1.2 | 1.13 |  | 1.1 | 0.422 | 0.446 | 0.415 | 0.436 | 0.388
NCI-H1975 | 1.04 | 1.01 | 1 | 1.01 | 0.845 | 0.511 | 0.534 | 0.53 | 0.437 | 0.379 | 1.06 | 1.17 | 1.11 | 0.98 | 0.752 | 0.378 | 0.363 | 0.426 | 0.406 | 0.404
NCI-H1993 | 0.928 | 0.84 | 0.965 | 0.85 | 0.864 | 0.689 | 0.515 |  | 0.691 | 0.563 | 0.762 | 0.732 | 0.749 | 0.76 | 0.73 | 0.695 | 0.602 |  | 0.665 | 0.572
NCI-H2009 | 1 | 1.1 | 0.933 | 1.1 | 1.05 | 0.196 | 0.201 | 0.228 | 0.24 | 0.0739 | 1.19 | 1.19 | 1.13 | 1.24 | 1.24 | 0.406 | 0.339 | 0.381 | 0.343 | 0.349
NCI-H2023 | 0.663 | 0.67 | 0.645 | 0.78 | 0.581 | 0.334 | 0.323 | 0.315 | 0.397 | 0.286 | 0.701 | 0.686 | 0.665 | 0.617 | 0.611 | 0.231 | 0.209 | 0.222 | 0.243 | 0.203
NCI-H2085 | 0.911 | 0.847 | 0.851 | 0.869 | 0.739 | 0.507 | 0.432 | 0.5 | 0.46 | 0.469 | 0.828 | 0.917 | 1.06 | 0.912 | 0.846 | 0.554 | 0.493 | 0.51 | 0.597 | 0.545
NCI-H2087 | 1.01 | 0.83 | 0.947 | 1.04 | 0.806 | 0.284 | 0.203 | 0.198 |  | 0.187 | 0.947 | 0.953 | 0.93 | 1.14 | 1 | 0.368 | 0.308 | 0.348 |  | 0.256
NCI-H2126 | 1.08 | 1.08 | 1.03 | 0.813 | 0.972 | 0.335 | 0.358 | 0.324 | 0.372 | 0.334 | 0.733 | 0.76 | 0.74 | 0.531 | 0.778 | 0.54 | 0.541 | 0.543 | 0.578 | 0.578
NCI-H2347 | 0.575 | 0.746 | 0.727 | 0.674 | 0.762 | 0.421 | 0.433 | 0.41 | 0.454 | 0.407 | 1.06 | 0.997 | 0.973 | 0.946 | 0.954 | 0.665 | 0.523 | 0.629 | 0.581 | 0.613
NCI-H2405 | 0.901 | 0.837 | 0.778 | 0.878 | 0.836 | 0.454 | 0.449 | 0.48 | 0.46 | 0.442 | 1.02 | 1.1 | 1.01 |  | 0.932 | 0.69 | 0.714 | 0.702 | 0.688 | 0.671
NCI-H3122 | 0.277 | 0.27 | 0.295 | 0.269 | 0.241 | 0.194 | 0.203 | 0.168 | 0.216 | 0.197 | 1 | 1.07 | 1.08 | 1.15 | 1.01 | 0.405 | 0.476 | 0.332 | 0.48 | 0.362
PC-3 [JPC-3] | 1.08 | 0.975 | 1.08 |  | 0.962 | 0.55 | 0.542 |  | 0.557 | 0.567 | 0.99 | 0.927 | 0.978 |  | 1.04 | 0.836 | 0.767 |  | 0.844 | 0.911
